Measurements published in patent US10106762B2, “Treating a textile garment with a hydrophobic dye solution” (Henkel IP & Holding GmbH, priority 2004, dated 2018).

Columns and labels:
[1] = Optical density of dye solution; type: physicochemical; details: 200 ppb solution in water at 10 cm; extrapolated from measurement in ethanol solutions at higher levels
[2] = LogP of dye; type: physicochemical

Compound | OD 10 cm [1] | logP [2]
COc1cc(/N=N/c2c(Br)cc([N+](=O)[O-])cc2[N+](=O)[O-])c(NC(C)=O)cc1N(CCOC(C)=O)CCOC(C)=O [Disperse Blue 79:1] | 0.048 | 4.5
CCN(CC)c1ccc(/N=N/c2c(C#N)cc([N+](=O)[O-])cc2C#N)c(NC(C)=O)c1 [Disperse Blue 165] | 0.014 | 3.5
CN=C1C=CC(=C(c2ccc(N(C)C)cc2)c2ccc(N(C)C)cc2)C=C1 [Solvent Violet 8, Solvent Violet 8 (Methyl Violet B Base)] | 0.26 | 4.5
CCN(CCO)c1ccc(/N=N/c2ccc([N+](=O)[O-])cc2)cc1 [disperse red 1] | 0.023 | 4
CC1(C)Nc2cccc3c(/N=N/c4ccc(/N=N/c5ccccc5)c5ccccc45)ccc(c23)N1 [solvent black 3] | 0.11 | 8.5
Disperse Blue 367 | 0.0067 | –
Solvent blue 43 | 0.33 | –
